Experimental data published in ChEMBL document CHEMBL6083249, “The journey of p38 MAP kinase inhibitors: From bench to bedside in treating inflammatory diseases” (Eur J Med Chem, 2024).
Blank lines part the entries; values can stand above or below the compound they belong to.

What was measured:
[1] = AUC in rat at 30 mg/kg, po; format: ADME, organism-based; details: in vivo
[2] = Oral bioavailability in ICR mouse at […] by LC-MS/MS analysis; format: ADME, organism-based; details: in vivo, dose 0.25 mg/kg
[3] = target: 3',5'-cyclic-AMP phosphodiesterase 4C (Homo sapiens, UniProt Q08493); assay: Inhibition of PDE4C (unknown origin)
[4] = target: 3',5'-cyclic-AMP phosphodiesterase 4B (Homo sapiens, UniProt Q07343); assay: Inhibition of PDE4B1 (unknown origin)
[5] = target: cGMP-inhibited 3',5'-cyclic phosphodiesterase 3A (Homo sapiens) (UniProt Q14432); assay: Inhibition of PDE3A (unknown origin) at 10 uM relative to control
[6] = target: cGMP-specific 3',5'-cyclic phosphodiesterase (Homo sapiens) (UniProt O76074); assay: Inhibition of human PDE5 at 10 uM relative to control
[7] = system: THP-1; assay: Antiinflammatory activity against human THP-1 cells assessed as inhibition of LPS-induced TNF-alpha production; format: functional, cell-based
[8] = Cmax in Wistar rat at 10 mg/kg, po by LC-MS/MS analysis; format: ADME, organism-based; details: in vivo
[9] = Tmax in Wistar rat at 10 mg/kg, po by LC-MS/MS analysis; format: ADME, organism-based; details: in vivo
[10] = Clearance in Sprague-Dawley rat at 10 mg/kg, iv by HPLC-MS analysis; format: ADME, organism-based; details: in vivo
[11] = system: RAW264.7; assay: Anti-inflammatory activity in LPS-induced mouse RAW264.7 cells assessed as inhibition of IL-6 production; format: functional, cell-based
[12] = system: THP-1; assay: Anti-inflammatory activity in human THP-1 cells assessed as inhibition of IL-1beta protein expression incubated for 24 hrs by Western blot analysis; format: functional, cell-based; details: THP-1, 24 h
[13] = Oral bioavailability in Sprague-Dawley rat at 10 mg/kg by LC-MS analysis; format: ADME, organism-based; details: in vivo
[14] = AUC in Sprague-Dawley rat at 10 mg/kg, po measured for 24 hrs by LC-MS/MS analysis; format: ADME, organism-based; details: in vivo
[15] = Volume of distribution at steady state in Sprague-Dawley rat at 10 mg/kg, iv measured for 24 hrs by LC-MS/MS analysis; format: ADME, organism-based; details: in vivo, read-out: Vdss
[16] = Half life in Sprague-Dawley rat at 10 mg/kg, po by LC-MS analysis; format: ADME, organism-based; details: in vivo

cGMP-inhibited 3',5'-cyclic phosphodiesterase 3A (Homo sapiens), sequence (Q14432 whole entry): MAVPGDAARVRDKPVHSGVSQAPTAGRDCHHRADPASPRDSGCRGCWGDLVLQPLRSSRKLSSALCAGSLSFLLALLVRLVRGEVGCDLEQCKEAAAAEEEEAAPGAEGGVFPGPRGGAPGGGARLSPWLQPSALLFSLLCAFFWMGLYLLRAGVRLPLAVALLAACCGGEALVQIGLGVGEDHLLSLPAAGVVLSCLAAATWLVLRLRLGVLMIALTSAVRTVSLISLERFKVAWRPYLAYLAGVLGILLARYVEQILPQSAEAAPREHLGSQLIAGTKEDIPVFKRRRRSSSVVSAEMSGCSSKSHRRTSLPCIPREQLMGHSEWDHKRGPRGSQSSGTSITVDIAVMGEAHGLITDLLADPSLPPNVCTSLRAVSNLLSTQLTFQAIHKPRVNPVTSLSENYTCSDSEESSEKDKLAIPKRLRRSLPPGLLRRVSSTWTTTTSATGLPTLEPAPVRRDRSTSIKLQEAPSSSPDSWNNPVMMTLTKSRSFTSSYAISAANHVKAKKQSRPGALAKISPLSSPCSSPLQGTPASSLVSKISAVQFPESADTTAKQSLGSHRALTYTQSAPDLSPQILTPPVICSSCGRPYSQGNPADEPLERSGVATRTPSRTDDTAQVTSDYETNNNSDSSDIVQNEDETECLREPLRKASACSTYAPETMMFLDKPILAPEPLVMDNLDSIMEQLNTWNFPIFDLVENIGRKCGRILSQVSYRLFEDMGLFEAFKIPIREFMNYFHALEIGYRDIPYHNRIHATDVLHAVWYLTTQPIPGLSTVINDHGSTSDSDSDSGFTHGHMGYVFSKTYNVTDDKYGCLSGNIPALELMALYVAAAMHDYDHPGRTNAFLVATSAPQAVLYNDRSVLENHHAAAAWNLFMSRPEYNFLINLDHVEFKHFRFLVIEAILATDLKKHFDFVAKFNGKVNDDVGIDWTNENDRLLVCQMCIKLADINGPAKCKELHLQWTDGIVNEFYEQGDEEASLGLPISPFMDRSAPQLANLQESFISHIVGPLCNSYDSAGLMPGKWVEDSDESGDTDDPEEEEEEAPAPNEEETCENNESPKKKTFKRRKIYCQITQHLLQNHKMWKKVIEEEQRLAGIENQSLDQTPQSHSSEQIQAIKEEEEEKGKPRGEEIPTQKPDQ
3',5'-cyclic-AMP phosphodiesterase 4B, sequence (Q07343 whole entry): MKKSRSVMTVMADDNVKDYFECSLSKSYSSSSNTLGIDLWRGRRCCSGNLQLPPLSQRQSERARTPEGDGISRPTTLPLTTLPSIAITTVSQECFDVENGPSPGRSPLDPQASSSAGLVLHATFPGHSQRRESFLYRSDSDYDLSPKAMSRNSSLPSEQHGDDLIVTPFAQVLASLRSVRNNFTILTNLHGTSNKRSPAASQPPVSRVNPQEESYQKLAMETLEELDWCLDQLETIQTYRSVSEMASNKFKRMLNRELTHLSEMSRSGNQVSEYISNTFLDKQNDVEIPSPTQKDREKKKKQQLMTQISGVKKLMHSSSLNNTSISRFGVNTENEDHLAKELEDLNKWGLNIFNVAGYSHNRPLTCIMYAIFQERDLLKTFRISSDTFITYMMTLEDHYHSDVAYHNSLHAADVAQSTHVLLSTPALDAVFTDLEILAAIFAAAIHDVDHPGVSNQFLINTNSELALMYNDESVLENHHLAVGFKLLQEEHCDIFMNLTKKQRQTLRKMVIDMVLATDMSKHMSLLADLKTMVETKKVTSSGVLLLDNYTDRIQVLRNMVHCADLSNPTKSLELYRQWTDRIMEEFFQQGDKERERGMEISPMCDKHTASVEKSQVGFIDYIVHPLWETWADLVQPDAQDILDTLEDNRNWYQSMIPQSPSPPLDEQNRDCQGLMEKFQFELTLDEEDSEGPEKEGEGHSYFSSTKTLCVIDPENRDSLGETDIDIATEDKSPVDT
3',5'-cyclic-AMP phosphodiesterase 4C, sequence (Q08493 whole entry): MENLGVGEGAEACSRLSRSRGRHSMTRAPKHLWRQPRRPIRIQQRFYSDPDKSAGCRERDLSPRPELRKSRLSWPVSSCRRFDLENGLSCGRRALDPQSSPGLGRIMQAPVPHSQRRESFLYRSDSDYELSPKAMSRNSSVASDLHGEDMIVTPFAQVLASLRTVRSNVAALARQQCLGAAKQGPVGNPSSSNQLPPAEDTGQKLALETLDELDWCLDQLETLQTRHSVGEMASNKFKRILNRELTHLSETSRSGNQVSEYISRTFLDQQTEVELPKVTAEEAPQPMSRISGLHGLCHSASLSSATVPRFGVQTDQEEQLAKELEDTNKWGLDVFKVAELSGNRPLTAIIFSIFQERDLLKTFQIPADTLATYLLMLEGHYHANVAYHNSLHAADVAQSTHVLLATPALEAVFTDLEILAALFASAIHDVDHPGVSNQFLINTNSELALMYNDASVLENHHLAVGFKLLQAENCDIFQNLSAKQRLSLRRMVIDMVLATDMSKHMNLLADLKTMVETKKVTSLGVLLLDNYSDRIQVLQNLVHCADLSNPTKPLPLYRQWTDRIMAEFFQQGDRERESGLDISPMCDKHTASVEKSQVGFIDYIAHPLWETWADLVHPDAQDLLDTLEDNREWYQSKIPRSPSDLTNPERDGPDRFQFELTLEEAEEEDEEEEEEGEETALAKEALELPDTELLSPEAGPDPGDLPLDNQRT

AUC [1]: 220 ng·h/mL | bioavailability [2]: 51%
SMILES: Cc1c(F)cc(C(=O)NC2CC2)cc1-c1ccc(C(=O)NCC(C)(C)C)cn1 [LOSMAPIMOD]

IC50 [3]: > 10000 nM | IC50 [4]: 3500 nM | inhibition [5]: 30% | inhibition [6]: 30%
SMILES: Cn1c([S+](C)[O-])nc(-c2ccc(F)cc2)c1-c1ccnc(N)c1 (stereo unspecified)

SMILES: Cn1c(=O)c(Oc2ccc(F)cc2F)cc2cnc(NC(CCO)CCO)nc21 [PAMAPIMOD]
IC50 [7]: 300 nM | Cmax [8]: 1340 ng/mL | Tmax [9]: 0.5 h | clearance [10]: 21 mL/min/kg | EC50 [11]: 50 nM | IC50 [12]: 100 nM | bioavailability [13]: 80.1% | AUC [14]: 3.13 µg/h/mL | Vd [15]: 3.56 L/kg | half-life [16]: 4.04 h
